{
  "source": "paper PMC12610274",
  "about": "“Identification of Marrubiin as a Cathepsin C Inhibitor for Treating Rheumatoid Arthritis” (Molecules, 2025)",
  "key": {"Cat G": {"tested_on": "Cat G", "test": "NSPs activity in U937 cells after 5 days of treatment, Cat G", "format": "cell-based, human", "settings": "U937, 10 μM", "experimental": "U937 cells in the logarithmic growth phase were collected and equally divided into six portions. Four of these portions were treated with DMSO solutions of the test compound at varying concentrations to achieve final concentrations of 1.25, 2.5, 5, and 10 μM, respectively. An equal volume of DMSO was added to one portion as a blank control, while another portion treated with a DMSO solution of AZD7986 served as a positive control. The cells were cultured under standard U937 conditions for 5 consecutive days, with daily medium changes and fresh compound treatments administered using the same protocol. Following 5 days of treatment, cells were harvested, washed twice thoroughly with phosphate-buffered saline, and lysed in phosphate-buffered saline containing 1% Triton X-100. The lysates were centrifuged to collect the supernatant, and protein concentrations were determined as previously described to ensure equal total protein loading across all samples. The prepared samples were stored at −20 °C until further analysis. Different assay buffers were prepared for diluting samples and measuring the activities of specific NSPs: a buffer containing 50 mM Tris and 750 mM NaCl (pH 7.4) was used for NE and PR3; a buffer containing 50 mM Tris, 750 mM NaCl, 5 mM EDTA (pH 7.4) was used for Cat G; and a buffer containing 25 mM MES, 50 mM NaCl, 5 mM DTT (pH 6.0) was used for CTSC. […]"}, "NSPs": {"tested_on": "NSPs", "test": "Stability (protein level) of NSPs in U937 cells, Western blot, NSPs together", "format": "cell-based, human", "settings": "U937, 10 μM, 24 h", "experimental": "The Western blot experiments in this study were performed as described below. Cells in the logarithmic growth phase were collected in appropriate numbers according to different experimental purposes. After being thoroughly washed with phosphate-buffered saline and centrifuged, the cell pellets were resuspended in phosphate-buffered saline to obtain single-cell suspensions. Cells were fully lysed using RIPA buffer (Beyotime, P0013B) supplemented with EDTA-free protease and phosphatase inhibitor (Abcam, ab201120). Total cellular protein solutions were obtained after centrifugation to remove cell debris. The isolated proteins were quantified using the BeyoBCA protein assay kit (Beyotime, P0399M) following the operational protocol. The quantified protein samples were thoroughly mixed with protein loading buffer, boiled on a dry bath for 5 min, and then cooled to room temperature for Western blot analysis. […] Finally, enhanced chemiluminescent horseradish peroxidase substrate (Tanon Science & Technology Co., Ltd., Shanghai, China, 180-506) was used to visualize protein bands on a ChemiDoc XRS system (Bio-Rad Laboratories, Inc., Hercules, CA, USA), and the protein bands were quantified using Image Lab analysis software (Version 6.1) (Bio-Rad). […]"}, "[1]": {"test": "Cytotoxicity assay, RAW264.7 cell line", "format": "cell-based", "settings": "mouse, RAW264.7 cells", "experimental": "RAW264.7 cells and U937 cells in the logarithmic growth phase were counted and diluted, and the concentrations of the single-cell suspensions of the two types of cells were adjusted to 5 × 10^4 cells/mL and 3 × 10^4 cells/mL, respectively. After thorough mixing, the cells were seeded into a 96-well plate, with 100 μL of cell suspension added to each well. Prepare the working solution of test compounds using the corresponding medium as the solvent, with the concentration of working solution being 2 times the final test concentration (2.5 μM, 5 μM, 10 μM, 20 μM, and 40 μM). Twenty-four hours after cell seeding, the compound working solutions were added to the compound test wells, and the same volume of medium was added to the negative control wells, followed by continuous incubation for another 24 h. Only the wells with the same volume but without cells served as the blank control group. The CellTiter-Lumi™ luminescent cell viability assay kit (Beyotime Biotechnology, Shanghai, China, C0065XL) was used to detect cell viability according to the standard operating procedures. Each group of tests was independently repeated at least 3 times, and IC50 values were calculated using SPSS 10.0."}},
  "data": [
    {"smiles": "C[C@@H]1C[C@H]2OC(=O)[C@@]3(C)CCC[C@@](C)([C@@H]23)[C@@]1(O)CCc1ccoc1", "note": "[Marrubiin, marrubiin]", "values": [
      {"measurement": "Cat G activity, % of DMSO group", "setting": "Cat G", "value": 16.9, "unit": "%"},
      {"measurement": "content of NSPs, % of the original level", "setting": "NSPs", "value": "75.4–87.8%"},
      {"measurement": "IC50 at 24 h", "setting": "[1]", "value": "> 10", "unit": "µM"}
    ]}
  ]
}
